Drawing on US8476253B2, “Amide derivative” (Daiichi Sankyo Company, Limited, priority 2009, dated 2013), this text covers ED50 and ID50 for eight compounds.

Structures can show the parent of a compound that is named as a salt.

One test concerns the target T1, neurokinin NK1 receptor (Cavia porcellus, UniProt P30547).
T1 construct: Using healthy guinea pigs (body weight, 350 to 550 g; Hartley male guinea pigs); from tissue; host or cells: live anaesthetised Hartley male guinea pigs (airway, in vivo)
Put plainly: Effect of suppressing substance P-induced airway contraction (in vivo, intratracheal administration). Set-up: species or system guinea pig. As to conditions: guinea pigs, intratracheal administration 60 minutes before 20 μg/kg i.v. SP, AUC of increase in airway pressure over 10 minutes; for ED50: guinea pig, read-out: ID50 (the source's name). As to the method: Using healthy guinea pigs (body weight, 350 to 550 g; Hartley male guinea pigs), the effect of suppressing airway contraction induced by substance P (SP), which is an NK1 receptor agonist, was examined by a modified method of Konzett-Roessler (Naunyn-Schmiedebergs Arch. Exp. Pathol. Pharmakol. 195, 71 [1940]) using airway pressure as an indicator.
(§1) A tracheal cannula and a venous cannula were attached to a guinea pig anesthetized with pentobarbital (50 mg/mL solution, 0.40 to 0.50 mL/body, subcutaneous administration). An arterial cannula filled with heparin-containing physiological saline (100 U/mL) was further attached, and blood pressure and heart rate were monitored via an amplifier and an instantaneous heart rate meter. Subsequently, gallamine (20 mg/body, intravenous administration) was administered to terminate spontaneous breathing, and then 10 mL/kg of positive pressure breathing (Ugo-Basile Biological Research Apparatus, Cat. No. 7025) was rapidly performed at 60 times/min. The airway pressure during artificial breathing was detected with a pressure transducer (TP-200T or TP-400T; Nihon Kohden Corporation) attached to a side branch of the tracheal cannula, amplified (AP-601G; Nihon Kohden Corporation), and recorded in a recorder. After the airway pressure, blood pressure, and heart rate were stabilized, 20 μg/kg of SP was intravenously administered from the venous cannula to induce airway contraction, and the airway pressure was measured for the following 10 minutes.
The test substance was dissolved in a 5% glucose solution, a 0.5 mL/kg solution was intratracheally administered with an intratracheal administration apparatus (model 1A-1B; Penn-Century, Inc.) 60 minutes before stimulation with SP.
The AUC of increase in the airway pressure over 10 minutes after administration of SP was determined as the intensity of SP-induced airway contraction and calculated as an ID50 value from the inhibition rate based on the value of the control group (5% glucose solution intratracheal administration group).

The target of another test is T2, neurokinin NK2 receptor (Cavia porcellus, UniProt Q64077).
T2 construct: Using healthy guinea pigs (body weight, 350 to 550 g; Hartley male guinea pigs); from tissue; host or cells: live anaesthetised Hartley male guinea pigs (airway, in vivo)
T2 sequence (Q64077 1-402): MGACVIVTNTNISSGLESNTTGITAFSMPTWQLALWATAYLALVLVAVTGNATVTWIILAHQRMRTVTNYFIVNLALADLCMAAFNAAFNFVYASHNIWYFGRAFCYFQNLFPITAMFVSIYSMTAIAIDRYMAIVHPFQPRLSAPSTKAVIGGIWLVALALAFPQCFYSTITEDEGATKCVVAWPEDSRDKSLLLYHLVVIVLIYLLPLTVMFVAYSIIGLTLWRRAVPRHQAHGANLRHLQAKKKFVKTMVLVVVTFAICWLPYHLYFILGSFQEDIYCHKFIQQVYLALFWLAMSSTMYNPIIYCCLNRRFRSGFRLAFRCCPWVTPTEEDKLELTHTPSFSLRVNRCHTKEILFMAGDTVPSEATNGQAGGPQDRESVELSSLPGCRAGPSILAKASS
Description: Effect of suppressing neurokinin A-induced airway contraction (in vivo, intratracheal administration). As to conditions: guinea pigs, intratracheal administration 60 minutes before 4 μg/kg i.v. NKA, AUC of increase in airway pressure over 10 minutes; for ED50: guinea pig, read-out: ID50 (the source's name). Also on record: species or system guinea pig. How it is done: Using healthy guinea pigs (body weight, 350 to 550 g; Hartley male guinea pigs), the effect of suppressing airway contraction induced by neurokinin A (NKA), which is an NK2 receptor agonist, was examined by a modified method of Konzett-Roessler (Naunyn-Schmiedebergs Arch. Exp. Pathol. Pharmakol. 195, 71 [1940]) using airway pressure as an indicator.
as §1, with “and” for “and then”, “stabilized, 4” for “stabilized, 20”, “of NKA” for “of SP”
The test substance was dissolved in a 5% glucose solution, and a 0.5 mL/kg solution was intratracheally administered with an intratracheal administration apparatus (model 1A-1B; Penn-Century, Inc.) 60 minutes before stimulation with NKA.
The AUC of increase in the airway pressure over 10 minutes after administration of NKA was determined as the intensity of NKA-induced airway contraction and calculated as an ID50 value from the inhibition rate based on the value of the control group (5% glucose solution intratracheal administration group).

T1 sequence (P30547 whole entry): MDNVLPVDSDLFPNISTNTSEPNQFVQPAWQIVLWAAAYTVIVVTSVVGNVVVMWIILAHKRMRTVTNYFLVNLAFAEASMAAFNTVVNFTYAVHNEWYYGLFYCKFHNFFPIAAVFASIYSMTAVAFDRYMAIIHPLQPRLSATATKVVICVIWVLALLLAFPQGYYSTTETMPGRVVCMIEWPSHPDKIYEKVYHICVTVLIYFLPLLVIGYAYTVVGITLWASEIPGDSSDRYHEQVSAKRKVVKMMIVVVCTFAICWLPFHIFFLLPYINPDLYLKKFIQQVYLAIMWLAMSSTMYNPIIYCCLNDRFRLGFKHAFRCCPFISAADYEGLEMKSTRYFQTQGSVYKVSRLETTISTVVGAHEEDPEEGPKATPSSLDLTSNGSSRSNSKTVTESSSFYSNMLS

With `CN(CCN1CCC(OC(=O)Nc2ccccc2-c2ccccc2)CC1)C(=O)CCCN(C)c1ccc(C(=O)N(C)CCCN(C)C(=O)CO[C@H]2Cc3ccccc3C23CCN(CC[C@@]2(c4ccc(F)cc4)CN(C(=O)c4cc(C(F)(F)F)cc(C(F)(F)F)c4)CO2)CC3)cc1` [Example 36, 1-{2-[{4-[{4-[{3-[({[(2S)-1′-{2-[(5R)-3-[3,5-Bis(trifluoromethyl)benzoyl]-5-(4-fluorophenyl)-1,3-oxazolidin-5-yl]ethyl}-2,3-dihydrospiro[indene-1,4′-piperidin]-2-yl]oxy}acetyl)(methyl)amino]propyl}(methyl)carbamoyl]phenyl}(methyl)amino]butanoyl}(methyl)amino]ethyl}piperidin-4-yl biphenyl-2-ylcarbamate trihydrochloride], the ED50 is 0.0236 mg/kg on neurokinin NK1 receptor and 0.0168 mg/kg on neurokinin NK2 receptor.
Take `CN(CCN1CCC(OC(=O)Nc2ccccc2-c2ccccc2)CC1)C(=O)CCCCCNc1ccc(C(=O)N(C)CCCN(C)C(=O)CO[C@H]2Cc3ccccc3C23CCN(CC[C@@]2(c4ccc(F)cc4)CN(C(=O)c4cc(C(F)(F)F)cc(C(F)(F)F)c4)CO2)CC3)cc1` [Example 72, 1-(2-{[6-({4-[{3-[({[(2S)-1′-{2-[(5R)-3-[3,5-Bis(trifluoromethyl)benzoyl]-5-(4-fluorophenyl)-1,3-oxazolidin-5-yl]ethyl}-2,3-dihydrospiro[indene-1,4′-piperidin]-2-yl]oxy}acetyl)(methyl)amino]propyl}(methyl)carbamoyl]phenyl}amino)hexanoyl](methyl)amino}ethyl)piperidin-4-yl biphenyl-2-ylcarbamate]: the ED50 turned out to be 0.0266 mg/kg on neurokinin NK1 receptor and 0.0151 mg/kg on neurokinin NK2 receptor.
As for `CN(CCN1CCC(OC(=O)Nc2ccccc2-c2ccccc2)CC1)C(=O)CCCCCCN(C)c1ccc(C(=O)N(C)CCCN(C)C(=O)CO[C@H]2Cc3ccccc3C23CCN(CC[C@@]2(c4ccc(F)cc4)CN(C(=O)c4cc(C(F)(F)F)cc(C(F)(F)F)c4)CO2)CC3)cc1` [Example 40, 1-{2-[{7-[{4-[{3-[({[(2S)-1′-{2-[(5R)-3-[3,5-Bis(trifluoromethyl)benzoyl]-5-(4-fluorophenyl)-1,3-oxazolidin-5-yl]ethyl}-2,3-dihydrospiro[indene-1,4′-piperidin]-2-yl]oxy}acetyl)(methyl)amino]propyl}(methyl)carbamoyl]phenyl}(methyl)amino]heptanoyl}(methyl)amino]ethyl}piperidin-4-yl biphenyl-2-ylcarbamate trihydrochloride], the values for the ED50 at neurokinin NK1 receptor and at neurokinin NK2 receptor were 0.0191 mg/kg and 0.0573 mg/kg, respectively.
On the same counts, the results for `CN(CCN1CCC(OC(=O)Nc2ccccc2-c2ccccc2)CC1)C(=O)CCNc1ccc(C(=O)N(C)CCCN(C)C(=O)CO[C@H]2Cc3ccccc3C23CCN(CC[C@@]2(c4ccc(F)cc4)CN(C(=O)c4cc(C(F)(F)F)cc(C(F)(F)F)c4)CO2)CC3)cc1` [Example 94, 1-{2-[(N-{4-[{3-[({[(2S)-1′-{2-[(5R)-3-[3,5-Bis(trifluoromethyl)benzoyl]-5-(4-fluorophenyl)-1,3-oxazolidin-5-yl]ethyl}-2,3-dihydrospiro[indene-1,4′-piperidin]-2-yl]oxy}acetyl)(methyl)amino]propyl}(methyl)carbamoyl]phenyl}-β-alanyl)(methyl)amino]ethyl}piperidin-4-yl biphenyl-2-ylcarbamate] are 0.0087 mg/kg and 0.0431 mg/kg.
Regarding `CN(CCN1CCC(OC(=O)Nc2ccccc2-c2ccccc2)CC1)C(=O)CCCCCNc1cccc(C(=O)N(C)CCCN(C)C(=O)CO[C@H]2Cc3ccccc3C23CCN(CC[C@@]2(c4ccc(F)cc4)CN(C(=O)c4cc(C(F)(F)F)cc(C(F)(F)F)c4)CO2)CC3)c1` [Example 43, 1-(2-{[6-({3-[{3-[({[(2S)-1′-{2-[(5R)-3-[3,5-Bis(trifluoromethyl)benzoyl]-5-(4-fluorophenyl)-1,3-oxazolidin-5-yl]ethyl}-2,3-dihydrospiro[indene-1,4′-piperidin]-2-yl]oxy}acetyl)(methyl)amino]propyl}(methyl)carbamoyl]phenyl}amino)hexanoyl](methyl)amino}ethyl)piperidin-4-yl biphenyl-2-ylcarbamate trihydrochloride], the ED50 at neurokinin NK1 receptor was found to be 0.0766 mg/kg; at neurokinin NK2 receptor, 0.0241 mg/kg.
As for `CN(CCN1CCC(OC(=O)Nc2ccccc2-c2ccccc2)CC1)C(=O)CCCCCNc1ccc(C(=O)N(C)CCN(C)C(=O)CO[C@H]2Cc3ccccc3C23CCN(CC[C@@]2(c4ccc(F)cc4)CN(C(=O)c4cc(C(F)(F)F)cc(C(F)(F)F)c4)CO2)CC3)cc1` [Example 15, 1-(2-{[6-({4-[{2-[({[(2S)-1-{2-[(5R)-3-[3,5-Bis(trifluoromethyl)benzoyl]-5-(4-fluorophenyl)-1,3-oxazolidin-5-yl]ethyl}-2,3-dihydrospiro[indene-1,4′-piperidin]-2-yl]oxy}acetyl)(methyl)amino]ethyl}(methyl)carbamoyl]phenyl}amino)hexanoyl](methyl)amino}ethyl)piperidin-4-yl biphenyl-2-ylcarbamate], the ID50 was found to be 0.0224 mg/kg at neurokinin NK1 receptor and 0.0377 mg/kg at neurokinin NK2 receptor.
Take `CN(CCN1CCC(OC(=O)Nc2ccccc2-c2ccccc2)CC1)C(=O)CCCCN(C)c1ccc(C(=O)N(C)CCCN(C)C(=O)CO[C@H]2Cc3ccccc3C23CCN(CC[C@@]2(c4ccc(F)cc4)CN(C(=O)c4cc(C(F)(F)F)cc(C(F)(F)F)c4)CO2)CC3)cc1` [Example 38, 1-{2-[{5-[{4-[{3-[({[(2S)-1′-{2-[(5R)-3-[3,5-Bis(trifluoromethyl)benzoyl]-5-(4-fluorophenyl)-1,3-oxazolidin-5-yl]ethyl}-2,3-dihydrospiro[indene-1,4′-piperidin]-2-yl]oxy}acetyl)(methy)amino]propyl}(methyl)carbamoyl]phenyl}(methyl)amino]pentanoyl}(methyl)amino]ethyl}piperidin-4-yl biphenyl-2-ylcarbamate trihydrochloride]: the ED50 at neurokinin NK1 receptor was found to be 0.0161 mg/kg; on neurokinin NK2 receptor, 0.0253 mg/kg.
On the same counts, the results for `Cc1nc(NCCCCCC(=O)N(C)CCN2CCC(OC(=O)Nc3ccccc3-c3ccccc3)CC2)sc1C(=O)N(C)CCCN(C)C(=O)CO[C@H]1Cc2ccccc2C12CCN(CC[C@@]1(c3ccc(F)cc3)CN(C(=O)c3cc(C(F)(F)F)cc(C(F)(F)F)c3)CO1)CC2` [Example 105, 1-(2-{[6-({5-[{3-[({[(2S)-1′-{2-[(5R)-3-[3,5-Bis(trifluoromethyl)benzoyl]-5-(4-fluorophenyl)-1,3-oxazolidin-5-yl]ethyl}-2,3-dihydrospiro[indene-1,4′-piperidin]-2-yl]oxy}acetyl)(methyl)amino]propyl}(methyl)carbamoyl]-4-methyl-1,3-thiazol-2-yl}amino)hexanoyl](methyl)amino}ethyl)piperidin-4-yl biphenyl-2-ylcarbamate trihydrochloride] are 0.0273 mg/kg and 0.0136 mg/kg.
